{"source": "paper PMC12143348", "about": "“Rapid and reversible fluorescent probe enables repeated snapshot imaging of AMPA receptors during synaptic plasticity” (Science Advances, 2025)", "key": {"[1]": {"tested_on": "native AMPARs", "assay": "Concentration-dependent binding of PFQX1(AF488) to AMPARs in primary cultured hippocampal neurons", "parameters": "species or system mouse", "settings": "for Kd: n = 3", "method": "We modified the Banker’s culture method of hippocampal neurons ([59]). Glass-bottom dishes (14 mm φ, Matsunami) were coated with poly-D-lysine (Sigma-Aldrich) and washed three times with sterile dH2O. Hippocampi from 16-day-old ICR mouse embryos were aseptically dissected and digested with 0.25% (w/v) trypsin (Nacalai Tesque) for 20 min at 37°C. The cells were resuspended in Neurobasal Plus medium supplemented with 10% FBS, 1 mM GlutaMAX I (Invitrogen), penicillin (100 U/ml), and streptomycin (100 μg/ml) and filtered by Cell Strainer (100 μm, Falcon) followed by centrifugation at 1000 rpm for 5 min. The cells were resuspended in Neurobasal Plus medium supplemented with 2% of B-27 Plus Supplement, 1 mM GlutaMAX I (Invitrogen), penicillin (100 U/ml), and streptomycin (100 μg/ml) and plated at a density of 2 × 10^4 cells on glass-bottom dishes. Precultured cortical astrocytes on glass coverslips (13 mm φ) were transferred to the dishes so that astrocytes were faced to neurons. The cultures were maintained at 37°C in a 95% air and 5% CO2 humidified incubator. The culture medium was replaced every 7 days, and the neurons were used at 16 to 18 days in vitro (DIV).\nCalcein Red AM (50 nM; AAT Bioquest) was added to the cultured neurons for 30 min at 37°C to visualize the intracellular region. The cells were washed with Hepes-based ACSF [25 mM Hepes (pH 7.4), 140 mM NaCl, 5 mM KCl, 1.3 mM CaCl2, 2 mM MgCl2, and 33 mM glucose], and 100 nM PFQX1(AF488) in Hepes-based ACSF was added to the dish.\nFor evaluating the concentration dependency of PFQX1(AF488), the cells were treated with 1 nM PFQX1(AF488). Then, PFQX1(AF488) in Hepes-based ACSF was added stepwise to the dish to a final concentration of 3, 10, 30, 100, 300, and 1000 nM. To quantify the concentration dependency after cLTP, the procedure described above was conducted after cLTP stimulation as described in the section “cLTP and quantification of cell-surface AMPARs.” The average intensity of ROIs set on spines was calculated by ZEN blue software after subtracting background fluorescence. The intensity was fitted with KaleidaGraph to calculate the equilibrium constant value using the following equation: a + (b − a)/(1 + (x/c)^d). The equilibrium constant is regarded as the Kd in this study."}, "[2]": {"molecular_target": "T1, GluA2 (Mus musculus, UniProt P23819, DEL765-802)", "T1 construct": "expressed in transfected cells; host or cells: HEK293T", "T1 sequence (P23819 with tags, fused parts or gaps isoform P23819-4 DEL765-802)": "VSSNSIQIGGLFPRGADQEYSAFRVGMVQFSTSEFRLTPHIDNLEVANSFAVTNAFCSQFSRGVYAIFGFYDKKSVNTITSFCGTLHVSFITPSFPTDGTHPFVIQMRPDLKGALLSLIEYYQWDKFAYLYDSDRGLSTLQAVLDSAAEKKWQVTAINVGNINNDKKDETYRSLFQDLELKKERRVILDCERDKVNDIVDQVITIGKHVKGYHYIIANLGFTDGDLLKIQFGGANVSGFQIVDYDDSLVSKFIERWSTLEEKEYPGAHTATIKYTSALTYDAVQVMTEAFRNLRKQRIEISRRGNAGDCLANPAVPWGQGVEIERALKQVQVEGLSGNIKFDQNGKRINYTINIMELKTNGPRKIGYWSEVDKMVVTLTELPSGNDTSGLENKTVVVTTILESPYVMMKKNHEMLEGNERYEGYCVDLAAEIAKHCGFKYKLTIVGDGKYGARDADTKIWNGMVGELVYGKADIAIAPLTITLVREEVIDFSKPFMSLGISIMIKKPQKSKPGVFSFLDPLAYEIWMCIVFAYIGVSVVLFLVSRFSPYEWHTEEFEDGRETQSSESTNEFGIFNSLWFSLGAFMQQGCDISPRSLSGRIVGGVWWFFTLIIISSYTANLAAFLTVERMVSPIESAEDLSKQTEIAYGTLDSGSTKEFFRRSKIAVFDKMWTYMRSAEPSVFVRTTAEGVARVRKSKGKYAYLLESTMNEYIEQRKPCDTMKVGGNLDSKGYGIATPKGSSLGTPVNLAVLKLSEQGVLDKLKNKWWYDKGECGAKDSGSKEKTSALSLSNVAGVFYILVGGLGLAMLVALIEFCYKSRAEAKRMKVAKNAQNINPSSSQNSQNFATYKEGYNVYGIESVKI", "assay": "Kinetics and reversibility of PFQX1(AF488) binding in HEK293T cells expressing GluA2", "settings": "100 nM probe", "method": "HEK293T cells were transfected with Halo-tag-GluA2^flip(Q)-3′UTR. The cells were incubated with 500 nM Halo-Tag ligand-Alexa647 [HTL(AF647)] for 15 min at room temperature. AF647 was used as a transfection marker. The cells were washed three times with HBS, and a cloning ring (16 mm φ) was placed on the dish to accelerate the diffusion of the probe solution. After the dish was set on the stage, 100 nM PFQX1(AF488) was added to inside the cloning ring and imaged at specified time points by confocal microscopy.\nFor evaluating reversibility, 100 nM PFQX1(AF488) in HBS was added to the dish. The cells were observed by confocal microscopy as the first image. Then, the cells were washed three times with HBS and scanned as the wash image. After removal of the buffer, 100 nM PFQX1(AF488) was re-treated, and the cells were scanned as the second image. To quantify the fluorescence intensity of the membrane, the average signal intensity of regions of interest (ROIs) set on the membrane was calculated after subtracting background fluorescence by ZEN blue software."}}, "note": "Read-outs that look alike come from different tables or passages of the source.", "data": [{"molecule": "N=c1ccc2c(-c3ccc(C(=O)NCc4ccn(-c5cc6c(cc5C(F)(F)F)[nH]c(=O)c(=O)n6CC(=O)O)c4)cc3C(=O)O)c3ccc(N)c(S(=O)(=O)O)c3oc-2c1S(=O)(=O)O", "note": "[PFQX1(AF488)]", "values": [{"measurement": "fraction of AMPARs bound / suppressed by the probe", "setting": "[1]; 10 nM probe, from Fig. 4C", "value": "less than 10%"}, {"measurement": "Kd", "setting": "[1]; cultured hippocampal neurons after cLTP stimulation, read-out: Kd value after cLTP", "value": "0.0724 ± 0.0174", "unit": "µM"}, {"measurement": "Kd", "setting": "[1]; primary cultured hippocampal neurons, spine fluorescence, read-out: Kd / Affinity to native AMPARs", "value": "0.0975 ± 0.0099", "unit": "µM"}, {"measurement": "reversibility of binding (medium exchange)", "setting": "[2]", "value": "fluorescence from the cell surface was lost after the medium exchange"}, {"measurement": "time to saturation of cell-surface fluorescence after probe addition", "setting": "[2]", "value": "≤ 20", "unit": "s"}]}]}
